These results are taken from ChEMBL document CHEMBL1130944, “Exploring structure-activity relationships around the phosphomannose isomerase inhibitor AF14049 via combinatorial synthesis” (Bioorg Med Chem Lett, 1998).

Converted amounts (≈) assume the structure as drawn.

One assay deals with Candida albicans. Nature of the assay: Compound was evaluated for the minimum inhibitory concentration against Candida albicans. In kind it is functional.
For `O=C(CCCSc1ccc(Cl)c(Cl)c1)NC1(C(=O)NO)Cc2ccccc2C1`, the MIC (usually the smallest concentration in the dilution series that meets the test's criterion for growth inhibition) was 100 µM (≈ 43.9 µg/mL).

For another assay, the system named is Saccharomyces cerevisiae. Nature of the assay: Compound was evaluated for the minimum inhibitory concentration against Invsc 1, a wild type strain of Saccharomyces cerevisiae. It counts as functional.
In turn, `O=C(CCCSc1ccc(Cl)c(Cl)c1)NC1(C(=O)NO)Cc2ccccc2C1` gave an MIC of 100 µM (≈ 43.9 µg/mL).

The test system of another assay is Saccharomyces cerevisiae. In words: Compound was evaluated for the minimum inhibitory concentration against Saccharomyces cerevisiae. In kind it is functional.
With `O=C(CCCSc1ccc(Cl)c(Cl)c1)NC1(C(=O)NO)Cc2ccccc2C1`, the MIC came to 80 µM (≈ 35.1 µg/mL).

A further assay concerns the target T1, Mannose-6-phosphate isomerase (Homo sapiens, UniProt P34949).
T1 sequence (P34949 whole entry): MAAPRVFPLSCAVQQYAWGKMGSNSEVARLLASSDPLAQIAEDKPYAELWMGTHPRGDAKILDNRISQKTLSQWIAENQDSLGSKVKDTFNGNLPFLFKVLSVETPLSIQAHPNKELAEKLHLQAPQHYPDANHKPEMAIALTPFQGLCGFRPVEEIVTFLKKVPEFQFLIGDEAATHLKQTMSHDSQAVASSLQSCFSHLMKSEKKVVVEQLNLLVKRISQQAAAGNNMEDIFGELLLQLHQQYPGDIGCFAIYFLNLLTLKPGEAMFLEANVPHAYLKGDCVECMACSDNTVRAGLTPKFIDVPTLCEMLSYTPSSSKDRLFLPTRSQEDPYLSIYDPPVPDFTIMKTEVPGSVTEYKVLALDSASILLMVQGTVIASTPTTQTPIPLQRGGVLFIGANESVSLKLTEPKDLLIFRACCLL
In words: Compound was tested for inhibition of human phosphomannose isomerase (PMI).
As for `O=CC(O)C(O)COP(=O)(O)O` (centres undefined), 100 µM corresponded to half-maximal inhibition (IC50).

Molecular target in another assay: not listed separately
Nature of the assay: Compound was tested for inhibition of porcine phosphomannose isomerase (PMI). Also on record: species or system Sus scrofa.
As for `O=CC(O)C(O)COP(=O)(O)O` (centres undefined), the IC50 (usually the concentration needed to halve the response being measured) stood at 100 µM.

The target in a further assay is T2, Mannose-6-phosphate isomerase (Candida albicans (strain SC5314 / ATCC MYA-2876) (Yeast), UniProt P34948).
T2 sequence (P34948 whole entry): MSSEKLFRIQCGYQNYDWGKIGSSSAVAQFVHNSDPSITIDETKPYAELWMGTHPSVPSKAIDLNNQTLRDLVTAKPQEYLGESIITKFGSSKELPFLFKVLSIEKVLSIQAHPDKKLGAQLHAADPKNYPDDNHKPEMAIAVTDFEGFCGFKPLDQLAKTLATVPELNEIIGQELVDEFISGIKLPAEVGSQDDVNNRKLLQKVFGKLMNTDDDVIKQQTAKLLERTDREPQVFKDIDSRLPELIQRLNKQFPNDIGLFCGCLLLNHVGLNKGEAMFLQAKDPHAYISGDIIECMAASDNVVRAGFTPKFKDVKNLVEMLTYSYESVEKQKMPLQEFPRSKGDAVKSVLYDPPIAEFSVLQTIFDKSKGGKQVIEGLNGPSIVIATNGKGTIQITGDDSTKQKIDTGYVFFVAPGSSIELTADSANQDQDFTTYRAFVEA
In words: Inhibition of phosphomannose isomerase enzyme of Candida albicans (CaPMI).
As to `NC(=O)C1(NC(=O)CCCOc2ccc(Cl)cc2Cl)CCc2ccccc2C1` (centres undefined), the half-inhibitory concentration (IC50) was 93 µM.

The compound `NC(=O)C1(NC(=O)CCCNc2ccc(Cl)cc2Cl)Cc2ccccc2C1` had a concentration for half-maximal inhibition (IC50) of 50 µM. Against the preceding compound, the IC50 is about 1.9-fold lower.

In turn, `O=C(CCCOc1ccc(Cl)cc1Cl)NC1(CO)Cc2ccccc2C1` came in with a concentration for half-maximal inhibition (IC50) of 140 µM.

The compound `NC(=O)C1Cc2ccccc2CN1C(=O)CCCOc1ccc(Cl)cc1Cl` (centres undefined) gave an IC50 greater than 200 µM.

For `Cc1cc(OCCCC(=O)NC2(C(N)=O)Cc3ccccc3C2)ccc1Cl`, the concentration for half-maximal inhibition (IC50) came out at 50 µM.

Compound `O=C(CCCOc1ccc(Cl)cc1Cl)NC1(C(=O)O)Cc2ccccc2C1` registered an IC50 greater than 500 µM.

Consider `COC(=O)C1(NC(=O)CCCOc2ccc(Cl)cc2Cl)Cc2ccccc2C1`, for which the half-maximal inhibitory concentration (IC50) is 34 µM.

`COC(=O)C1(NC(=O)CCCOc2ccc(Cl)c(Cl)c2)Cc2cc3ccccc3cc2C1`: the half-maximal inhibitory concentration (IC50) is greater than 200 µM.

On to `NC(=O)C1(NC(=O)CCCSc2ccc(Cl)cc2Cl)Cc2ccccc2C1`, for which the IC50 was 14 µM.

Consider `COC(=O)C1(NC(=O)CCCOc2ccc(Cl)c(Cl)c2)Cc2ccc3ccccc3c2C1` (centres undefined), for which the IC50 is greater than 200 µM.

Consider `NC(=O)C1(NC(=O)CCCNc2ccc(Cl)c(Cl)c2)Cc2ccccc2C1`, for which the IC50 is 21 µM.

`NC(=O)C1(NC(=O)CCCOc2cc(Cl)c(Cl)cc2Cl)Cc2ccccc2C1` returned an IC50 of 30 µM.

Take `NC(=O)C1(NC(=O)CCCSc2ccc(Cl)c(Cl)c2)Cc2ccccc2C1`: half-maximal inhibition (IC50) required 6 µM. Compared with the last compound, the IC50 is about 5-fold lower.

Compound `NC(=O)C1(NC(=O)CCCOc2ccc(Cl)cc2Cl)CCCC1` returned an IC50 greater than 200 µM.

In turn, `NC(=O)C1(NC(=O)CCCOc2ccc(Cl)c(Cl)c2)Cc2ccccc2C1` returned an IC50 of 15 µM.

For the compound `O=C(CCCOc1ccc(Cl)cc1Cl)NC1(C(=O)NO)Cc2ccccc2C1`, the IC50 worked out at 39 µM.

Compound `NNC(=O)C1(NC(=O)CCCOc2ccc(Cl)cc2Cl)Cc2ccccc2C1` displayed an IC50 of 40 µM.

As to `COC(=O)c1ccc2c(c1)CC(NC(=O)CCCOc1ccc(Cl)c(Cl)c1)(C(=O)OC)C2` (centres undefined), the IC50 is greater than 200 µM.

The compound `CNC(=O)C1(NC(=O)CCCOc2ccc(Cl)cc2Cl)Cc2ccccc2C1` had a half-maximal inhibitory concentration (IC50) of 34 µM.

As to `O=C(CCCOc1ccc(Cl)cc1Cl)NC1Cc2ccccc2C1`, the IC50 is greater than 200 µM.

In turn, `CC(Cc1ccccc1)(NC(=O)CCCOc1ccc(Cl)cc1Cl)C(N)=O` (centres undefined) came in with an IC50 greater than 200 µM.

With `NC(=O)C1(NC(=O)CCCOc2ccc(Cl)cc2Cl)CCc2ccccc21` (centres undefined), the 50% inhibitory concentration (IC50) is greater than 200 µM.

A further assay addresses T1, Mannose-6-phosphate isomerase. In words: Compound was evaluated for the inhibition constant against human phosphomannose isomerase (huPMI).
`O=C(CCCSc1ccc(Cl)c(Cl)c1)NC1(C(=O)NO)Cc2ccccc2C1`: the inhibitory constant (Ki) – broadly, a dissociation constant, usually derived from enzyme kinetics or from competition with a known ligand – stood at 26 µM.

The target of the next assay is Mannose-6-phosphate isomerase (Saccharomyces cerevisiae) (UniProt P29952). Nature of the assay: Compound was evaluated for the inhibition of yeast phosphomannose isomerase (PMI) at a concentration of 300 uM; inactive.
Chain of Mannose-6-phosphate isomerase (Saccharomyces cerevisiae) (P29952 whole entry, looked up): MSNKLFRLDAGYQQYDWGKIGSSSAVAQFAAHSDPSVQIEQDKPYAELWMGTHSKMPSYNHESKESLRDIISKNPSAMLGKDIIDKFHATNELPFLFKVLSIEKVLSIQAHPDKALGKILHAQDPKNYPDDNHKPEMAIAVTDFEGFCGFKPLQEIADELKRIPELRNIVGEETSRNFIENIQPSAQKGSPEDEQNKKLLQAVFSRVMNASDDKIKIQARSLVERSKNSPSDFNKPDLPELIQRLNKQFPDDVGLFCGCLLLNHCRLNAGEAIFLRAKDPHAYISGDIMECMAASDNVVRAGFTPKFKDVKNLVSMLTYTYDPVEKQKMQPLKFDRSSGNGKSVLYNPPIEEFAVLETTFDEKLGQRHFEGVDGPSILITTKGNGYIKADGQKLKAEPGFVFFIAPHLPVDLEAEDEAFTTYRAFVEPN
As to `O=C(CCCOc1ccc(Cl)cc1Cl)NC1(C(=O)NO)CCc2ccccc21` (centres undefined), the IC50 entry is on record as “Not Active”.
